Experiments:
[1] = target: T1, BTK enzyme (recombinant full-length BTK, hBTK) (Homo sapiens, UniProt Q06187); test: Btk enzyme activity assay (LANCE TR-FRET); assay type: biochemical; conditions: 50 pM hBTK, 25 μM ATP, 60 minute compound and enzyme incubation, concentration range 1 μM to 0.017 nM, read-out: BTK binding IC50
T1 construct: recombinant protein from baculovirus-transfected S 19 cells: full-length BTK, 6 HIS-tag cleaved; 6 HIS-tag (cleaved yes); made in house

[2] = system: adenosine uptake into HeLa cells; test: [3H]Adenosine uptake assay; assay type: cell-based; conditions: Homo sapiens; accumulation of [3H]adenosine into HeLa cells; concentration range 10 μM to 0.032 nM; read-out: ADU inhibition IC50
In short: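 HeLa cells (25 000/well), plated overnight, were preincubated 30 minutes at ambient temperature with compound in HBSS + 5% FBS. Ten-point titrations ran from 10 μM to 0.032 nM final. [3H]adenosine was added from a 500 nM solution for 60 minutes, and uptake was measured by scintillation proximity counting; IC50 came from a 4-parameter fit.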

T1 sequence (Q06187 whole entry): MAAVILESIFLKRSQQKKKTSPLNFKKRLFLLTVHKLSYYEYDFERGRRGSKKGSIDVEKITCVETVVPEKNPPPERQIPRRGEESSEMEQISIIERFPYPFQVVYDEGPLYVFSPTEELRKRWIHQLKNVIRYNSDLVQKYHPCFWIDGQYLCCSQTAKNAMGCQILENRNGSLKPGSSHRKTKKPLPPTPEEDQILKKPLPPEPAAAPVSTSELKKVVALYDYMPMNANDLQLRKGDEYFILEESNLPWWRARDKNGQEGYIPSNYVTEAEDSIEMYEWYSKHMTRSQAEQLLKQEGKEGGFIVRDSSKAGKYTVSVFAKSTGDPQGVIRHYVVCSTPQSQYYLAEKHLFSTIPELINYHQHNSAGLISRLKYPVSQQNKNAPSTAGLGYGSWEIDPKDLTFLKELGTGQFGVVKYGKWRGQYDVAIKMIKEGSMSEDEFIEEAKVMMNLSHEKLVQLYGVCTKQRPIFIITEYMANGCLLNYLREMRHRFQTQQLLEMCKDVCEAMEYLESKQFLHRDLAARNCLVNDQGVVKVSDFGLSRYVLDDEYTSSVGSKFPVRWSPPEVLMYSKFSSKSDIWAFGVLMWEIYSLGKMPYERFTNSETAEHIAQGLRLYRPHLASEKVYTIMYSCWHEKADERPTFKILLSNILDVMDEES

Row | Compound | IC50 [1] [nM] | IC50 [2] [nM]
1 | CCOc1cc(C(=O)Nc2cc(C(F)(F)F)ccn2)ccc1-c1nc([C@H]2CN(C(=O)C3CC3(F)F)[C@@H](C)CO2)n2c(Cl)cnc(N)c12 (stereo partly drawn) [Example 102, 4-(8-amino-5-chloro-3-{(2R,5S)-4-[(2,2-difluorocyclopropyl)carbonyl]-5-methylmorpholin-2-yl}imidazo[1,5-a]pyrazin-1-yl)-3-ethoxy-N-[4-(trifluoromethyl)pyridin-2-yl]benzamide] | 3.12 | 5930
2 | CCOc1cc(C(=O)Nc2cc(C(F)(F)F)ccn2)ccc1-c1nc([C@H]2CN(C(=O)CCOC)[C@@H](C)CO2)n2c(Cl)cnc(N)c12 [Example 104, 4-{8-amino-5-chloro-3-[(2R,5S)-4-(3-methoxypropanoyl)-5-methylmorpholin-2-yl]imidazo[1,5-a]pyrazin-1-yl}-3-ethoxy-N-[4-(trifluoromethyl)pyridin-2-yl]benzamide] | 1.33 | 6150
3 | CCOc1cc(C(=O)Nc2cc(C(F)(F)F)ccn2)c(F)cc1-c1nc([C@H]2CN(C(=O)C3CC3)[C@@H](C)CO2)n2c(Cl)cnc(N)c12 [Example 105, 4-{8-amino-5-chloro-3-[(2R,5S)-4-(cyclopropylcarbonyl)-5-methylmorpholin-2-yl]imidazo[1,5-a]pyrazin-1-yl}-5-ethoxy-2-fluoro-N-[4-(trifluoromethyl)pyridin-2-yl]benzamide] | 2.52 | 5160
4 | CCOc1cc(C(=O)Nc2cc(C(F)(F)F)ccn2)ccc1-c1nc([C@H]2CN(C3CCS(=O)(=O)CC3)[C@@H](C)CO2)n2c(Cl)cnc(N)c12 [Example 108, 4-{8-amino-5-chloro-3-[(2R,5S)-4-(1,1-dioxidotetrahydro-2H-thiopyran-4-yl)-5-methylmorpholin-2-yl]imidazo[1,5-a]pyrazin-1-yl}-3-ethoxy-N-[4-(trifluoromethyl)pyridin-2-yl]benzamide] | 1.8 | 1320
5 | CCc1cnc(N)c2c(-c3ccc(C(=O)Nc4cc(C(F)(F)F)ccn4)cc3F)nc([C@H]3CN(C(=O)C4CC4)[C@@H](C)CO3)n12 [Example 110, 4-{8-amino-3-[(2R,5S)-4-(cyclopropylcarbonyl)-5-methylmorpholin-2-yl]-5-ethylimidazo[1,5-a]pyrazin-1-yl}-3-fluoro-N-[4-(trifluoromethyl)pyridin-2-yl]benzamide] | 0.674 | 533
6 | Nc1c(N[C@H]2C[C@H](c3nc(-c4ccc(C(=O)Nc5cc(C(F)(F)F)ccn5)cc4)c4c(N)nccn43)C2)c(=O)c1=O [Example 112, 4-(8-amino-3-{trans-3-[(2-amino-3,4-dioxocyclobut-1-en-1-yl)amino]cyclobutyl}imidazo[1,5-a]pyrazin-1-yl)-N-[4-(trifluoromethyl)pyridin-2-yl]benzamide] | 0.254 | 2270
7 | CNc1c(N[C@H]2C[C@H](c3nc(-c4ccc(C(=O)Nc5cc(C(F)(F)F)ccn5)cc4)c4c(N)nccn43)C2)c(=O)c1=O [Example 113, 4-[8-amino-3-(trans-3-{[2-(methylamino)-3,4-dioxocyclobut-1-en-1-yl]amino}cyclobutyl)imidazo[1,5-a]pyrazin-1-yl]-N-[4-(trifluoromethyl)pyridin-2-yl]benzamide] | 0.166 | 2940
8 | Nc1nccn2c1c(-c1ccc(C(=O)Nc3cc(C(F)(F)F)ccn3)cc1)nc2[C@H]1C[C@H](Nc2c(NC3CC3)c(=O)c2=O)C1 [Example 114, 4-[8-amino-3-(trans-3-{[2-(cyclopropylamino)-3,4-dioxocyclobut-1-en-1-yl]amino}cyclobutyl)imidazo[1,5-a]pyrazin-1-yl]-N-[4-(trifluoromethyl)pyridin-2-yl]benzamide] | 0.327 | 925

Results, then the molecule that gave them:

Row | IC50 [1] [nM] | IC50 [2] [nM] | Compound
9 | 0.327 | 129 | COCC(=O)N1C[C@H](c2nc(-c3ccc(C(=O)Nc4cc(C(C)(F)F)ccn4)cc3)c3c(N)nccn23)CC[C@@H]1C [Example 97, 4-{8-amino-3-[(3R,6S)-1-(methoxyacetyl)-6-methylpiperidin-3-yl]imidazo[1,5-a]pyrazin-1-yl}-N-[4-(1,1-difluoroethyl)pyridin-2-yl]benzamide]
10 | 1.74 | 1610 | CCOc1cc(C(=O)Nc2cc(C(F)(F)F)ccn2)ccc1-c1nc([C@H]2CN(C(=O)[C@H](C)O)[C@@H](C)CO2)n2ccnc(N)c12 [Example 98, 4-(8-amino-3-{(2R,5S)-4-[(2S)-2-hydroxypropanoyl]-5-methylmorpholin-2-yl}imidazo[1,5-a]pyrazin-1-yl)-3-ethoxy-N-[4-(trifluoromethyl)pyridin-2-yl]benzamide]
11 | 0.788 | 1990 | CCOc1cc(C(=O)Nc2cc(C(F)(F)F)ccn2)ccc1-c1nc([C@H]2CN(C(=O)[C@H](C)O)[C@@H](C)CO2)n2c(CC)cnc(N)c12 [Example 99, 4-(8-amino-5-ethyl-3-{(2R,5S)-4-[(2S)-2-hydroxypropanoyl]-5-methylmorpholin-2-yl}imidazo[1,5-a]pyrazin-1-yl)-3-ethoxy-N-[4-(trifluoromethyl)pyridin-2-yl]benzamide]
12 | 0.65 | 663 | C[C@H](O)C(=O)N1C[C@H](c2nc(-c3ccc(C(=O)Nc4cc(C(F)(F)F)ccn4)cc3Cl)c3c(N)ncc(Cl)n23)OC[C@@H]1C [Example 100, 4-(8-amino-5-chloro-3-{(2R,5S)-4-[(2S)-2-hydroxypropanoyl]-5-methylmorpholin-2-yl}imidazo[1,5-a]pyrazin-1-yl)-3-chloro-N-[4-(trifluoromethyl)pyridin-2-yl]benzamide]
13 | 0.665 | 2720 | CCOc1cc(C(=O)Nc2cc(C(F)(F)F)ccn2)cc(F)c1-c1nc([C@H]2CN(C(=O)[C@H](C)O)[C@@H](C)CO2)n2c(Cl)cnc(N)c12 [Example 101, 4-(8-amino-5-chloro-3-{(2R,5S)-4-[(2S)-2-hydroxypropanoyl]-5-methylmorpholin-2-yl}imidazo[1,5-a]pyrazin-1-yl)-3-ethoxy-5-fluoro-N-[4-(trifluoromethyl)pyridin-2-yl]benzamide]
14 | 1.92 | 5580 | CCOc1cc(C(=O)Nc2cc(C(F)(F)F)ccn2)ccc1-c1nc([C@H]2CN(C(=O)C3(C#N)CC3)[C@@H](C)CO2)n2c(Cl)cnc(N)c12 [Example 103, 4-(8-amino-5-chloro-3-{(2R,5S)-4-[(1-cyanocyclopropyl)carbonyl]-5-methylmorpholin-2-yl}imidazo[1,5-a]pyrazin-1-yl)-3-ethoxy-N-[4-(trifluoromethyl)pyridin-2-yl]benzamide]
15 | 4.31 | 6250 | CCOc1cc(C(=O)Nc2cc(C(F)(F)F)ccn2)ccc1-c1nc([C@H]2CN(C(=O)[C@H](C)O)[C@@H](C)CO2)n2c(F)cnc(N)c12 [Example 106, 4-(8-amino-5-fluoro-3-{(2R,5S)-4-[(2S)-2-hydroxypropanoyl]-5-methylmorpholin-2-yl}imidazo[1,5-a]pyrazin-1-yl)-3-ethoxy-N-[4-(trifluoromethyl)pyridin-2-yl]benzamide]
16 | 0.479 | 1990 | CCOc1cc(C(=O)Nc2cc(C(F)(F)F)ccn2)cc(F)c1-c1nc([C@H]2CN(C(=O)[C@@H](C)O)[C@@H](C)CO2)n2c(Cl)cnc(N)c12 [Example 107, 4-(8-amino-5-chloro-3-{(2R,5S)-4-[(2R)-2-hydroxypropanoyl]-5-methylmorpholin-2-yl}imidazo[1,5-a]pyrazin-1-yl)-3-ethoxy-5-fluoro-N-[4-(trifluoromethyl)pyridin-2-yl]benzamide]
17 | 0.403 | 3340 | CCOc1cc(C(=O)Nc2cc(C(F)(F)F)n(C)n2)ccc1-c1nc([C@@H]2CC[C@H](C)N(C(=O)[C@@H](C)O)C2)n2ccnc(N)c12 [Example 109, 4-(8-amino-3-{(3R,6S)-1-[(2R)-2-hydroxypropanoyl]-6-methylpiperidin-3-yl}imidazo[1,5-a]pyrazin-1-yl)-3-ethoxy-N-[1-methyl-5-(trifluoromethyl)-1H-pyrazol-3-yl]benzamide]
18 | 0.274 | 982 | CCOc1cc(C(=O)Nc2cc(C(F)(F)F)ccn2)ccc1-c1nc([C@@H]2CC[C@H](C)N(C(=O)[C@@H](C)O)C2)n2c(Cl)cnc(N)c12 [Example 111, 4-(8-amino-5-chloro-3-{(3R,6S)-1-[(2R)-2-hydroxypropanoyl]-6-methylpiperidin-3-yl}imidazo[1,5-a]pyrazin-1-yl)-3-ethoxy-N-[4-(trifluoromethyl)pyridin-2-yl]benzamide]

From patent US20170349593A1, “BTK INHIBITORS” (MERCK SHARP & DOHME CORP., priority 2014, published 2017)
